{"source": "patent EP0429304A2", "about": "“Pyridone-carboxylic acid derivatives and their use as veterinary medicines” (SHIONOGI SEIYAKU KABUSHIKI KAISHA trading under the name of …, priority 1989, dated 1991)", "test_system": "TS-resistant MG", "test": "Experimental MG infection to chicken, through bait", "assay_type": "in vivo", "conditions": "9-days chicken; for Number of infected fowl/Number of fowl tested: 6.6 x 10³ CFU/fowl, dissection 6th day after inoculation; for Number of fowl having air sack lesions / Infectious index Left air sack + / Infectious index Left air sack ++ / Infectious index Left air sack +++ / Infectious index Left air sack - / Infectious index Right air sack + / Infectious index Right air sack ++ / Infectious index Right air sack +++ / Infectious index Right air sack -: 1.8 x 10³ CFU/fowl; for Infectious index Left air sack + / Infectious index Left air sack ++ / Infectious index Left air sack +++ / Infectious index Left air sack - / Infectious index Right air sack + / Infectious index Right air sack ++ / Infectious index Right air sack +++ / Infectious index Right air sack -: count of fowl"}
{"smiles": "Cl.Nc1c(F)c(N2C[C@@H]3CC[C@@H](N)[C@@H]3C2)c(F)c2c1c(=O)c(C(=O)O)cn2C1CC1", "note": "(relative stereo) [I-16]", "values": [{"measurement": "Number of infected fowl/Number of fowl tested", "setting": "bait 3.13 ppm/Day", "result": "2/7"}, {"measurement": "Number of fowl having air sack lesions", "setting": "bait 15.6 ppm/Day", "result": 3}, {"measurement": "Number of fowl having air sack lesions", "setting": "bait 31.3 ppm/Day", "result": 3}, {"measurement": "Number of fowl having air sack lesions", "setting": "bait 62.5 ppm/Day", "result": 0}, {"measurement": "Number of infected fowl/Number of fowl tested", "setting": "bait 62.5 ppm/Day", "result": "0/7"}, {"measurement": "Number of infected fowl/Number of fowl tested", "setting": "bait 125 ppm/Day", "result": "0/7"}, {"measurement": "Infectious index Left air sack +", "setting": "bait 15.6 ppm/Day", "result": 0}, {"measurement": "Infectious index Left air sack ++", "setting": "bait 15.6 ppm/Day", "result": 0}, {"measurement": "Infectious index Left air sack +++", "setting": "bait 15.6 ppm/Day", "result": 0}, {"measurement": "Infectious index Left air sack -", "setting": "bait 15.6 ppm/Day", "result": 5}, {"measurement": "Infectious index Right air sack +", "setting": "bait 15.6 ppm/Day", "result": 1}, {"measurement": "Infectious index Right air sack ++", "setting": "bait 15.6 ppm/Day", "result": 2}, {"measurement": "Infectious index Right air sack +++", "setting": "bait 15.6 ppm/Day", "result": 0}, {"measurement": "Infectious index Right air sack -", "setting": "bait 15.6 ppm/Day", "result": 2}, {"measurement": "Infectious index Left air sack +", "setting": "bait 31.3 ppm/Day", "result": 0}, {"measurement": "Infectious index Left air sack ++", "setting": "bait 31.3 ppm/Day", "result": 0}, {"measurement": "Infectious index Left air sack +++", "setting": "bait 31.3 ppm/Day", "result": 0}, {"measurement": "Infectious index Left air sack -", "setting": "bait 31.3 ppm/Day", "result": 5}, {"measurement": "Infectious index Right air sack +", "setting": "bait 31.3 ppm/Day", "result": 1}, {"measurement": "Infectious index Right air sack ++", "setting": "bait 31.3 ppm/Day", "result": 2}, {"measurement": "Infectious index Right air sack +++", "setting": "bait 31.3 ppm/Day", "result": 0}, {"measurement": "Infectious index Right air sack -", "setting": "bait 31.3 ppm/Day", "result": 2}, {"measurement": "Infectious index Left air sack +", "setting": "bait 62.5 ppm/Day", "result": 0}, {"measurement": "Infectious index Left air sack ++", "setting": "bait 62.5 ppm/Day", "result": 0}, {"measurement": "Infectious index Left air sack +++", "setting": "bait 62.5 ppm/Day", "result": 0}, {"measurement": "Infectious index Left air sack -", "setting": "bait 62.5 ppm/Day", "result": 5}, {"measurement": "Infectious index Right air sack +", "setting": "bait 62.5 ppm/Day", "result": 0}, {"measurement": "Infectious index Right air sack ++", "setting": "bait 62.5 ppm/Day", "result": 0}, {"measurement": "Infectious index Right air sack +++", "setting": "bait 62.5 ppm/Day", "result": 0}, {"measurement": "Infectious index Right air sack -", "setting": "bait 62.5 ppm/Day", "result": 5}]}
